SMILES strings stand for the structures. Where two headings read alike, the source gives them in different places.

Common to all, as to type: biochemical
One assay has as its target MMP-13 (Homo sapiens, UniProt P45452). Kind of assay: MMP-13 inhibition (thiopeptide or fluorescent peptide substrate assay).
In the next assay the target is MMP-9 (Homo sapiens, UniProt P14780). Kind of assay: MMP-9 inhibition (thiopeptide or fluorescent peptide substrate assay).
The next assay addresses T1, MMP-1 (Homo sapiens, UniProt P03956).
T1 sequence (P03956 100-469): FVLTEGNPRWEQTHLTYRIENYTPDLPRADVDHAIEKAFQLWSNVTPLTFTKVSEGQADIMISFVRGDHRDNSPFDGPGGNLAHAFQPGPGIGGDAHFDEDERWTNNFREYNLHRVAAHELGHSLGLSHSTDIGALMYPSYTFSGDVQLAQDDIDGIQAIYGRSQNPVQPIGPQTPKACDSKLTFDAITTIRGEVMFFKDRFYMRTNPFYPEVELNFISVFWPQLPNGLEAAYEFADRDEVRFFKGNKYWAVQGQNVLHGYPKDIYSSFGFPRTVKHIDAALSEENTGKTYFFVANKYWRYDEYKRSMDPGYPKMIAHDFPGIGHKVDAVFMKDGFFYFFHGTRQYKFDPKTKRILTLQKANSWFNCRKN
Kind of assay: MMP-1 inhibition (thiopeptide or fluorescent peptide substrate assay).

Another assay deals with TACE (Homo sapiens, UniProt P78536). Kind of assay: TACE inhibition (fluorescent peptidyl substrate). To be noted: for inhibition at 1 µM: at 1µM concentration.
TACE, sequence (P78536 215-824): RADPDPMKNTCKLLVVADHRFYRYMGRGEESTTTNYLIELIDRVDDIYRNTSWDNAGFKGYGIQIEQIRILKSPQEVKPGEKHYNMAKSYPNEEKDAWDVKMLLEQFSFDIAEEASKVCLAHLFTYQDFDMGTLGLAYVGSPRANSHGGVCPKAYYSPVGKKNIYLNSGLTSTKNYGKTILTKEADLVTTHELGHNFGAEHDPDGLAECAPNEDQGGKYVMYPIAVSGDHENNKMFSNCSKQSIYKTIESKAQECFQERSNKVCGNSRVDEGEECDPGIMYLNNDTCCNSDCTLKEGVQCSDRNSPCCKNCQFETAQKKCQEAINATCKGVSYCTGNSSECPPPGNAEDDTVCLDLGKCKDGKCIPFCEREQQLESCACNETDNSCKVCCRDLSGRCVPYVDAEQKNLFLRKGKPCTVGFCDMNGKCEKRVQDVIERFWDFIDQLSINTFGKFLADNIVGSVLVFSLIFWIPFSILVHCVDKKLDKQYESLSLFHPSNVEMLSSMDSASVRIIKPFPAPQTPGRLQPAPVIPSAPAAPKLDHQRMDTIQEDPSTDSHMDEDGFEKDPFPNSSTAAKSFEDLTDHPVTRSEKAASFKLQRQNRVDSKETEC

MMP-9, sequence (P14780 94-707): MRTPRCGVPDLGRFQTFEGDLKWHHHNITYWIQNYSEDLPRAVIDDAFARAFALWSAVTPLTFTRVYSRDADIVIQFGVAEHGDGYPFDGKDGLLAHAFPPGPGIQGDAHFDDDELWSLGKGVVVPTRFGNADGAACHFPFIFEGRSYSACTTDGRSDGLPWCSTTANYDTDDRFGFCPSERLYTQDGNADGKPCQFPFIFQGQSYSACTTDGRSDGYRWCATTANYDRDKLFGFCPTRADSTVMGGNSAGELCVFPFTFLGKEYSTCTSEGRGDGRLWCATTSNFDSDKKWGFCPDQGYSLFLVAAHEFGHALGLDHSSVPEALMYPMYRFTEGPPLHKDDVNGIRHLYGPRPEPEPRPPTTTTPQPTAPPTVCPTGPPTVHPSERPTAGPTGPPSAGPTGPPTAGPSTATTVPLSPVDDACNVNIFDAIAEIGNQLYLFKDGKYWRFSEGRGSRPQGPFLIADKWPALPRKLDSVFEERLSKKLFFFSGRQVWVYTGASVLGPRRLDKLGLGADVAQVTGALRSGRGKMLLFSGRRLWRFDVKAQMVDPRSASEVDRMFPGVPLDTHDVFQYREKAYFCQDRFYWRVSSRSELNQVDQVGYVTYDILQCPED
Protocol for MMP-13: The enzyme activity is measured by the rate of the color increase. The thiopeptide substrate is made up fresh as a 20 mM stock in 100% DMSO and the DTNB is dissolved in 100% DMSO as a 100 mM stock and stored in the dark at room temperature. Both the substrate and DTNB are diluted together to 1 mM with substrate buffer (50 mM HEPES pH 7.5, 5 mM CaCl2) before use. […] Alternatively, a fluorescent peptide substrate is used. In this assay, the peptide substrate contains a fluorescent group and a quenching group. Upon cleavage of the substrate by an MMP, the fluorescence that is generated is quantitated on the fluorescence plate reader. […] The substrate is dissolved in methanol and stored frozen in 1 mM aliquots. For the assay, substrate and enzymes are diluted in HCBC buffer to the desired concentrations. Compounds are added to the 96 well plate containing enzyme and the reaction is started by the addition of substrate. […] For either the thiopeptide or fluorescent peptide assays, the slope of the line is calculated and represents the reaction rate. […] The mean (x±sem) of the control rate is calculated and compared for statistical significance (p<0.05) with drug-treated rates using Dunnett's multiple comparison test.
Protocol for TACE: Using 96-well black microtiter plates, each well receives a solution composed of 10 µL TACE (Immunex, final concentration 1µg/mL), 70µL Tris buffer, pH 7.4 containing 10% glycerol (final concentration 10 mM), and 10 µL of test compound solution in DMSO (final concentration 1µM, DMSO concentration <1%) and incubated for 10 minutes at room temperature.
The reaction is read (excitation 340 nm, emission 420 nm) for 10 min. and the increase in fluorescence over time is plotted as a linear line. The slope of the line is calculated and represents the reaction rate.
The linearity of the reaction rate is confirmed (r^2 >0.85). The mean (x±sem) of the control rate is calculated and compared for statistical significance (p<0.05) with drug-treated rates using Dunnett's multiple comparison test.

One may read the IC50 as the point on the concentration scale where inhibition reaches its midpoint. In the case of `COc1ccc(S(=O)(=O)N(Cc2cccnc2)c2c(Br)cc(C)cc2C(=O)NO)cc1` [Example 138, 3-Bromo-N-hydroxy-2-[(4-methoxy-benzenesulfonyl)-pyridin-3-ylmethyl-amino]-5-methyl-benzamide], the IC50 at MMP-13 (read-out: MMP-13 IC50) was 57 nM; at MMP-9 (read-out: MMP-9 IC50), 77 nM; on MMP-1 (read-out: MMP-1 IC50) it was 258 nM; on TACE (read-out: TACE IC50), 215 nM.

For `COc1ccc(S(=O)(=O)N(Cc2ccccc2)c2c(C(=O)NO)cccc2[N+](=O)[O-])cc1` [Example 170, 2-[Benzyl-(4-methoxy-benzenesulfonyl)-amino]-N-hydroxy-3-nitro-benzamide], the IC50 was 39 nM on MMP-13 (read-out: MMP-13 IC50), 12 nM at MMP-9 (read-out: MMP-9 IC50), 347 nM on MMP-1 (read-out: MMP-1 IC50) and 176 nM on TACE (read-out: TACE IC50).

The inhibition is the drop in the measured response relative to a control, in per cent. A high value points to a strong effect. For `COc1ccc(S(=O)(=O)N(Cc2ccccc2)c2c(OCCCO)cccc2C(=O)NO)cc1` [Example 174, 2-[Benzyl-(4-methoxy-benzenesulfonyl)-amino]-N-hydroxy 3-(3-hydroxy-propoxy)-benzamide], the values for the IC50 on MMP-13 (read-out: MMP-13 IC50), on MMP-9 (read-out: MMP-9 IC50) and at MMP-1 (read-out: MMP-1 IC50) were 71 nM, 16 nM and 323 nM, respectively. Moreover, the inhibition at 1 µM against TACE amounted to 50%.

In the case of `COc1ccc(S(=O)(=O)N(Cc2cccnc2)c2c(C)cc(-c3cccs3)cc2C(=O)NO)cc1` [Example 175, N-Hydroxy-2-[(4-methoxybenzenesulfonyl)-pyridin-3-ylmethyl-amino]-3-methyl-5-thiophen-2-yl benzamide], the concentration for half-maximal inhibition (IC50) came to 4 nM on MMP-13 (read-out: MMP-13 IC50), 7 nM at MMP-9 (read-out: MMP-9 IC50), 90 nM on MMP-1 (read-out: MMP-1 IC50) and 57 nM at TACE (read-out: TACE IC50).

For `COc1ccc(S(=O)(=O)N(Cc2ccccc2)c2c(C#N)cc(C)cc2C(=O)NO)cc1` [Example 179], the figures for the IC50 on MMP-13 (read-out: MMP-13 IC50), at MMP-9 (read-out: MMP-9 IC50) and at MMP-1 (read-out: MMP-1 IC50) were 53 nM, 40 nM and 680 nM, respectively. Further, the inhibition at 1 µM against TACE stood at 64%.

On to `COc1ccc(S(=O)(=O)N(Cc2cccnc2)c2c(C(=O)NO)cc(C)cc2-c2ccco2)cc1` [Example 186, 3-Furan-2-yl-N-hydroxy-2-[(4-methoxybenzenesulfonyl)-pyridin-3-ylmethylamino]-5-methyl-benzamide], for which the concentration for half-maximal inhibition (IC50) against MMP-13 turned out to be 1.4 nM; on MMP-9 (read-out: MMP-9 IC50), 13 nM; on MMP-1 (read-out: MMP-1 IC50) it was 37 nM; against TACE it was 61 nM.

As to `CCN(CC)Cc1cccc(C(=O)NO)c1N(C)S(=O)(=O)c1ccc(OC)cc1` [Example 191, 3-Diethylaminomethyl-N-hydroxy-2-[(4-methoxybenzenesulfonyl)-methylamino]benzamide], the IC50 on MMP-13 (read-out: MMP-13 IC50) worked out at 67 nM; at MMP-9 (read-out: MMP-9 IC50), 10 nM; on MMP-1 (read-out: MMP-1 IC50) it was 1240 nM; at TACE (read-out: TACE IC50), 210 nM.

On to `COc1ccc(S(=O)(=O)N(Cc2ccccc2)c2c(OC(C)(C)C(=O)NO)cccc2C(=O)NO)cc1` [Example 197], for which the half-inhibitory concentration (IC50) on MMP-13 (read-out: MMP-13 IC50) was found to be 6 nM; on MMP-9 (read-out: MMP-9 IC50), 5 nM; on MMP-1 (read-out: MMP-1 IC50) it was 711 nM. Also, the inhibition at 1 µM on TACE came to 32%.

With `COc1ccc(S(=O)(=O)N(Cc2ccccc2)c2c(Br)cccc2C(=O)NO)cc1` [Example 201, 3-Bromo-2-[benzyl-(4-methoxybenzenesulfonyl)amino]-N-hydroxy-benzamide], the concentration for half-maximal inhibition (IC50) on MMP-13 (read-out: MMP-13 IC50) amounted to 27 nM; at MMP-9 (read-out: MMP-9 IC50), 11 nM; on MMP-1 (read-out: MMP-1 IC50), 104 nM; at TACE (read-out: TACE IC50) it was 1000 nM.

With `CCCCCCCCN(C)C(=O)C=Cc1cc(C)c(N(C)S(=O)(=O)c2ccc(OC)cc2)c(C(=O)NO)c1` [Example 207, N-Hydroxy-2-[(4-methoxy-benzenesulfonyl)-methyl-amino]-3-methyl-5-[2-(methyl-octyl-carbamoyl)-vinyl]-benzamide], the 50% inhibitory concentration (IC50) on MMP-13 (read-out: MMP-13 IC50) was found to be 2.5 nM; at MMP-9 (read-out: MMP-9 IC50) it was 2 nM; on MMP-1 (read-out: MMP-1 IC50) it was 1120 nM; at TACE (read-out: TACE IC50), 375 nM.

Take `CCCCCCCCN(C)C(=O)CCc1cc(C)c(N(C)S(=O)(=O)c2ccc(OC)cc2)c(C(=O)NO)c1` [Example 212, N-Hydroxy-2-[(4-methoxy-benzenesulfonyl)-methyl-amino]-3-methyl-5-[2-(methyl-octyl-carbamoyl)-ethyl]-benzamide]: the IC50 on MMP-13 (read-out: MMP-13 IC50) amounted to 11 nM; on MMP-9 (read-out: MMP-9 IC50), 5.2 nM; on MMP-1 (read-out: MMP-1 IC50), 415 nM; on TACE (read-out: TACE IC50), 314 nM.

Consider `COc1ccc(S(=O)(=O)N(C)c2c(C)cc(C=CC(=O)N(C)C)cc2C(=O)O)cc1` [Example 214, 5-(2-Dimethylcarbamoyl-vinyl)-2-[(4-methoxy-benzenesulfonyl)-methyl-amino]-3-methyl-benzoic acid], for which the IC50 on MMP-13 was determined as 19 nM; at MMP-9, 6.4 nM; at MMP-1, 423 nM; at TACE, 232 nM.

Take `CCN(Cc1ccncc1)C(=O)C=Cc1cc(C)c(N(C)S(=O)(=O)c2ccc(OC)cc2)c(C(=O)NO)c1` [Example 219, 5-[2-(Ethyl-pyridin-4-ylmethyl-carbamoyl)-vinyl]-N-hydroxy-2-[(4-methoxy-benzenesulfonyl)-methyl-amino]-3-methyl-benzamide]: the IC50 was 5.8 nM at MMP-13 (read-out: MMP-13 IC50), 6.7 nM at MMP-9 (read-out: MMP-9 IC50), 290 nM at MMP-1 (read-out: MMP-1 IC50) and 548 nM on TACE (read-out: TACE IC50).

For the molecule `CCCCCCCCN(C)C(=O)C=Cc1cc(C)c(N(Cc2cccnc2)S(=O)(=O)c2ccc(OC)cc2)c(C(=O)NO)c1` [Example 224, N-Hydroxy-2-[(4-methoxy-benzenesulfonyl)-pyridin-3-ylmethyl-amino]-3-methyl-5-[2-(methyl-octyl-carbamoyl)-vinyl]-benzamide], the IC50 turned out to be 14 nM on MMP-13 (read-out: MMP-13 IC50), 11 nM on MMP-9 (read-out: MMP-9 IC50), 957 nM on MMP-1 (read-out: MMP-1 IC50) and 715 nM on TACE (read-out: TACE IC50).

Regarding `COc1ccc(S(=O)(=O)N(Cc2cccnc2)c2c(C)cc(C=CC(=O)N(C)C)cc2C(=O)NO)cc1` [Example 227, 5-(2-Dimethylcarbamoyl-vinyl)-N-hydroxy-2-[(4-methoxy-benzenesulfonyl)-pyridin-3-ylmethyl-amino]-3-methyl-benzamide], the IC50 was found to be 4.1 nM on MMP-13 (read-out: MMP-13 IC50), 3.1 nM on MMP-9 (read-out: MMP-9 IC50), 193 nM on MMP-1 (read-out: MMP-1 IC50) and 446 nM at TACE (read-out: TACE IC50).

On to `CCN(C(=O)C=Cc1cc(C)c(N(Cc2cccnc2)S(=O)(=O)c2ccc(OC)cc2)c(C(=O)NO)c1)c1ccccc1` [Example 230, 5-[2-(Ethyl-phenyl-carbamoyl)-vinyl]-N-hydroxy-2-[(4-methoxy-benzenesulfonyl)-pyridin-3-ylmethyl-amino]-3-methyl-benzamide], for which the IC50 on MMP-13 (read-out: MMP-13 IC50) was 1.9 nM; on MMP-9 (read-out: MMP-9 IC50), 2.4 nM; on MMP-1 (read-out: MMP-1 IC50), 20 nM. In addition, testing at 1 µM against TACE gave an inhibition of 47%.

On to `C=CCN(CC=C)C(=O)C=Cc1cc(C)c(N(Cc2cccnc2)S(=O)(=O)c2ccc(OC)cc2)c(C(=O)NO)c1` [Example 233, 5-(2-Diallylcarbamoyl-vinyl)-N-hydroxy-2-[(4-methoxy-benzenesulfonyl)-pyridin-3-ylmethyl-amino]-3-methyl-benzamide], for which the 50% inhibitory concentration (IC50) on MMP-13 (read-out: MMP-13 IC50) is 1.8 nM; on MMP-9 (read-out: MMP-9 IC50), 2.3 nM; on MMP-1 (read-out: MMP-1 IC50), 32 nM; on TACE (read-out: TACE IC50) it was 450 nM.

For the molecule `COc1ccc(S(=O)(=O)N(Cc2cccnc2)c2c(C)cc(C=CC(=O)N3CCOCC3)cc2C(=O)NO)cc1` [Example 240], the half-maximal inhibitory concentration (IC50) amounted to 1.6 nM at MMP-13 (read-out: MMP-13 IC50), 3.5 nM on MMP-9 (read-out: MMP-9 IC50), 86 nM at MMP-1 (read-out: MMP-1 IC50) and 548 nM on TACE (read-out: TACE IC50).

As for `COc1ccc(S(=O)(=O)N(Cc2cccnc2)c2c(C)cc(-c3ccccc3C=NO)cc2C(=O)NO)cc1` [Example 243, 2'-(Hydroxyimino-methyl)-4-[(4-methoxy-benzenesulfonyl)-pyridin-3-ylmethyl-amino]-5-methyl-biphenyl-3-carboxylic acid hydroxyamide], the IC50 at MMP-13 (read-out: MMP-13 IC50) came to 3.1 nM; on MMP-9 (read-out: MMP-9 IC50), 6.6 nM; at MMP-1 (read-out: MMP-1 IC50), 528 nM; at TACE (read-out: TACE IC50), 66 nM.

`COc1ccc(S(=O)(=O)N(Cc2cccnc2)c2c(C)cc(-c3cccc(C=NO)c3)cc2C(=O)NO)cc1` [Example 246, 3'-(Hydroxyimino-methyl)-4-[(4-methoxy-benzenesulfonyl)-pyridin-3-ylmethyl-amino]-5-methyl-biphenyl-3-carboxylic acid hydroxyamide]: the half-maximal inhibitory concentration (IC50) at MMP-13 (read-out: MMP-13 IC50) turned out to be 3.6 nM; on MMP-9 (read-out: MMP-9 IC50), 6 nM; on MMP-1 (read-out: MMP-1 IC50), 106 nM; at TACE (read-out: TACE IC50), 56 nM.

`COc1ccc(S(=O)(=O)N(Cc2cccnc2)c2c(C)cc(-c3ccc(C=NO)cc3)cc2C(=O)NO)cc1` [Example 249, 4'-(Hydroxyimino-methyl)-4-[(4-methoxy-benzenesulfonyl)-pyridin-3-ylmethyl-amino]-5-methyl-biphenyl-3-carboxylic acid hydroxyamide]: the half-maximal inhibitory concentration (IC50) on MMP-13 (read-out: MMP-13 IC50) worked out at 6 nM; at MMP-9 (read-out: MMP-9 IC50), 2.8 nM; on MMP-1 (read-out: MMP-1 IC50), 231 nM; on TACE (read-out: TACE IC50), 100 nM.

As to `COc1ccc(S(=O)(=O)N(Cc2cccnc2)c2c(C)cc(-c3ccccc3C(F)(F)F)cc2C(=O)NO)cc1` [Example 252, 4-[(4-Methoxy-benzenesulfonyl)-pyridin-3-ylmethyl-amino]-5-methyl-2'-trifluoromethyl-biphenyl-3-carboxylic acid hydroxyamide], the 50% inhibitory concentration (IC50) on MMP-13 (read-out: MMP-13 IC50) stood at 10 nM; at MMP-9 (read-out: MMP-9 IC50) it was 15 nM; at MMP-1 (read-out: MMP-1 IC50) it was 652 nM; at TACE (read-out: TACE IC50), 346 nM.

The record behind these values is patent EP0938471B1, “THE PREPARATION AND USE OF ORTHO-SULFONAMIDO ARYL HYDROXAMIC ACIDS AS MATRIX METALLOPROTEINASE AND TACE INHIBITORS” (priority 1996, dated 1998).
